Test results: patent US12097241B2, “Methods of treating kidney failure, and/or improving or stablizing renal function using modified relaxin polypeptides” (BRISTOL-MYERS SQUIBB COMPANY, priority 2017, dated 2024)

Legend:
human RXFP1 receptor = target: T1, human RXFP1 receptor (Homo sapiens, UniProt Q9HBX9); assay: Intracellular cAMP accumulation assay; assay type: cell-based
T1 construct: expressed in transfected cells
T1 sequence (Q9HBX9 1-757): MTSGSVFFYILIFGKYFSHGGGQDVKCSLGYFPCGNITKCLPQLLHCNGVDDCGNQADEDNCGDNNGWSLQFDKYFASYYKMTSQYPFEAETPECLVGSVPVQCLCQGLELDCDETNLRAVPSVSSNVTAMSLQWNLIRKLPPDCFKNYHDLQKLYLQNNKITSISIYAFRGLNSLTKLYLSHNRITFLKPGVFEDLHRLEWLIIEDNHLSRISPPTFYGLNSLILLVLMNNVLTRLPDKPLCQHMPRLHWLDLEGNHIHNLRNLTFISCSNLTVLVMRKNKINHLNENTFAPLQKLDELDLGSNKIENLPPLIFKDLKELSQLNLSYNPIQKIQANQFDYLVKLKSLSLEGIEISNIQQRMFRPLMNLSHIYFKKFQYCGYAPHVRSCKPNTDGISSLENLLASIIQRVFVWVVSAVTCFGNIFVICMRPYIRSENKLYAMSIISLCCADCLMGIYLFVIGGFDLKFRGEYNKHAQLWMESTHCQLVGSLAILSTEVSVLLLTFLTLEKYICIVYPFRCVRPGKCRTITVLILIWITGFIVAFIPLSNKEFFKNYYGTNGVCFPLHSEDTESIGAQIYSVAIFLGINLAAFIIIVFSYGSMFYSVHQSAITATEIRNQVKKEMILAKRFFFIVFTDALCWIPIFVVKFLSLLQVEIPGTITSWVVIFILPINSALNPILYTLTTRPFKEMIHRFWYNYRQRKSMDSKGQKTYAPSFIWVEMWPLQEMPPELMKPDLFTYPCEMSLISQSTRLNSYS

[1] = In vivo pharmacokinetic (PK) studies in rats; set-up: species or system Sprague-Dawley rats; conditions: rat, male Sprague-Dawley rats, single SC dose 1.0 mg/kg, serum ELISA
Protocol: […] Blood samples were collected via jugular vein at different time points out to 72 hours. Blood samples were allowed to coagulate at room temperature (30-60 m) and then centrifuged (1500-2000) at 4° C. to obtain serum. After centrifugation serum samples were transferred to 96 well plates and stored at −80° C. until bioanalysis. Relaxin concentrations were measured from serum by ELISA.
Relaxin concentration-time profiles from individual animals were used for analysis. Pharmacokinetic parameters were calculated by non-compartmental methods using Phoenix WinNonlin (version 6.4) or Kinetica (version 5). Mean pharmacokinetic parameters Cmax, AUCinf, C24 and half-life were reported (Table 4). Table 4. In vivo PK data (abbreviations as in Table 3).

Compound	EC50 (human RXFP1 receptor)	AUC(0-inf) ([1]; read-out: Rat PK AUC Total)	level at time molar at 24 h ([1]; read-out: Rat PK C24)
CCCCCCCCCCCCCCC(=O)NCC(=O)NCC(=O)NCC(=O)N[C@@H](CCC(=O)O)C(=O)N[C@@H](CCC(=O)O)C(=O)N1CCC[C@H]1C(=O)N[C@@H](CCC(=O)O)C(=O)N[C@@H](CCC(=O)O)C(=O)N[C@@H](CCC(=O)O)C(=O)N[C@@H](CCC(=O)O)C(=O)N1CCC[C@H]1C(=O)N[C@@H](CCC(=O)O)C(=O)N[C@@H](CCC(=O)O)C(=O)N[C@@H](CCC(=O)O)C(=O)N[C@@H](CCC(=O)O)C(=O)N1CCC[C@H]1C(=O)N[C@@H](CCC(=O)O)C(=O)N[C@@H](CCC(=O)O)C(=O)N[C@@H](CCC(=O)O)C(=O)N[C@@H](CCC(=O)O)C(=O)NCCON=C(C)c1ccc(C[C@H](N)C(=O)N[C@@H](CC(C)C)C(=O)N[C@@H](Cc2ccc(O)cc2)C(=O)N[C@@H](CO)C(=O)N[C@@H](C)C(=O)N[C@@H](CC(C)C)C(=O)N[C@@H](C)C(=O)N[C@@H](CC(N)=O)C(=O)N[C@@H](CCCCN)C(=O)N[C@H]2CSSC[C@@H]3NC(=O)CNC(=O)[C@H](C(C)C)NC(=O)[C@H](Cc4c[nH]cn4)NC(=O)[C@H](CSSC[C@H](NC(=O)[C@H](CC(C)C)NC(=O)[C@H](CCCCN)NC(=O)[C@@H](NC(=O)[C@@H](NC(=O)[C@H](CCC(=O)O)NC(=O)[C@H](CCC(=O)O)NC(=O)[C@H](CCSC)NC(=O)[C@H](Cc4c[nH]c5ccccc45)NC(=O)[C@H](CO)NC(=O)[C@H](C)N)C(C)C)[C@@H](C)CC)C(=O)NCC(=O)N[C@@H](CCCNC(=N)N)C(=O)N[C@@H](CCC(=O)O)C(=O)N[C@@H](CC(C)C)C(=O)N[C@@H](C(C)C)C(=O)N[C@@H](CCCNC(=N)N)C(=O)N[C@@H](C)C(=O)N[C@@H](CCC(N)=O)C(=O)N[C@@H]([C@@H](C)CC)C(=O)N[C@@H](C)C(=O)N[C@@H]([C@@H](C)CC)C(=O)N[C@H](C(=O)NCC(=O)N[C@@H](CCSC)C(=O)N[C@@H](CO)C(=O)N[C@H](C(=O)N[C@@H](Cc4c[nH]c5ccccc45)C(=O)N[C@@H](CO)C(=O)O)[C@@H](C)O)CSSC[C@@H](C(=O)O)NC(=O)[C@H](Cc4ccccc4)NC(=O)[C@H](CCCNC(=N)N)NC(=O)[C@H](C)NC(=O)[C@H](CC(C)C)NC(=O)[C@H](CO)NC(=O)[C@H](CCCNC(=N)N)NC(=O)[C@H](CCCCN)NC(=O)[C@H]([C@@H](C)O)NC3=O)NC2=O)cc1	0.16 nM	–	–
CC[C@H](C)[C@@H]1NC(=O)[C@H](C)NC(=O)[C@H]([C@@H](C)CC)NC(=O)[C@H](CCC(N)=O)NC(=O)[C@H](C)NC(=O)[C@H](CCCNC(=N)N)NC(=O)[C@H](C(C)C)NC(=O)[C@H](CC(C)C)NC(=O)[C@H](CCC(=O)O)NC(=O)[C@H](CCCNC(=N)N)NC(=O)CNC(=O)[C@@H](NC(=O)[C@H](CC(C)C)NC(=O)[C@H](CCCCN)NC(=O)[C@@H](NC(=O)[C@@H](NC(=O)[C@H](CCC(=O)O)NC(=O)[C@H](CCC(=O)O)NC(=O)[C@H](CCSC)NC(=O)[C@H](Cc2c[nH]c3ccccc23)NC(=O)[C@H](CO)NC(=O)[C@H](C)N)C(C)C)[C@@H](C)CC)CSSC[C@@H]2NC(=O)[C@@H](NC(=O)[C@H](CCCCN)NC(=O)[C@H](CC(N)=O)NC(=O)[C@H](C)NC(=O)[C@H](CC(C)C)NC(=O)[C@H](C)NC(=O)[C@H](CO)NC(=O)[C@H](Cc3ccc(O)cc3)NC(=O)[C@H](CC(C)C)NC(=O)[C@@H](N)Cc3ccc(/C(C)=N/OCCNC(=O)CN(C)C(=O)CN(C)C(=O)CN(C)C(=O)CN(C)C(=O)[C@H](CO)NC(=O)CN(C)C(=O)CN(C)C(=O)CN(C)C(=O)CN(C)C(=O)CC[C@H](NC(=O)CCCCCCCCCCCCC(=O)O)C(=O)O)cc3)CSSC[C@H](NC(=O)CNC(=O)[C@H](C(C)C)NC(=O)[C@H](Cc3c[nH]cn3)NC2=O)C(=O)N[C@@H]([C@@H](C)O)C(=O)N[C@@H](CCCCN)C(=O)N[C@@H](CCCNC(=N)N)C(=O)N[C@@H](CO)C(=O)N[C@@H](CC(C)C)C(=O)N[C@@H](C)C(=O)N[C@@H](CCCNC(=N)N)C(=O)N[C@@H](Cc2ccccc2)C(=O)N[C@H](C(=O)O)CSSC[C@@H](C(=O)NCC(=O)N[C@@H](CCSC)C(=O)N[C@@H](CO)C(=O)N[C@H](C(=O)N[C@@H](Cc2c[nH]c3ccccc23)C(=O)N[C@@H](CO)C(=O)O)[C@@H](C)O)NC1=O	0.39 nM	–	–
CCCCCCCCCCCCCCC(=O)N[C@@H](CCC(=O)N[C@@H](CCC(=O)O)C(=O)N[C@@H](CCC(=O)O)C(=O)N[C@@H](CCC(=O)O)C(=O)N[C@@H](CCC(=O)O)C(=O)N[C@@H](CCC(=O)O)C(=O)N[C@@H](CCC(=O)O)C(=O)NCCON=C(C)c1ccc(C[C@H](N)C(=O)N[C@@H](CC(C)C)C(=O)N[C@@H](Cc2ccc(O)cc2)C(=O)N[C@@H](CO)C(=O)N[C@@H](C)C(=O)N[C@@H](CC(C)C)C(=O)N[C@@H](C)C(=O)N[C@@H](CC(N)=O)C(=O)N[C@@H](CCCCN)C(=O)N[C@H]2CSSC[C@@H]3NC(=O)CNC(=O)[C@H](C(C)C)NC(=O)[C@H](Cc4c[nH]cn4)NC(=O)[C@H](CSSC[C@H](NC(=O)[C@H](CC(C)C)NC(=O)[C@H](CCCCN)NC(=O)[C@@H](NC(=O)[C@@H](NC(=O)[C@H](CCC(=O)O)NC(=O)[C@H](CCC(=O)O)NC(=O)[C@H](CCSC)NC(=O)[C@H](Cc4c[nH]c5ccccc45)NC(=O)[C@H](CO)NC(=O)[C@H](C)N)C(C)C)[C@@H](C)CC)C(=O)NCC(=O)N[C@@H](CCCNC(=N)N)C(=O)N[C@@H](CCC(=O)O)C(=O)N[C@@H](CC(C)C)C(=O)N[C@@H](C(C)C)C(=O)N[C@@H](CCCNC(=N)N)C(=O)N[C@@H](C)C(=O)N[C@@H](CCC(N)=O)C(=O)N[C@@H]([C@@H](C)CC)C(=O)N[C@@H](C)C(=O)N[C@@H]([C@@H](C)CC)C(=O)N[C@H](C(=O)NCC(=O)N[C@@H](CCSC)C(=O)N[C@@H](CO)C(=O)N[C@H](C(=O)N[C@@H](Cc4c[nH]c5ccccc45)C(=O)N[C@@H](CO)C(=O)O)[C@@H](C)O)CSSC[C@@H](C(=O)O)NC(=O)[C@H](Cc4ccccc4)NC(=O)[C@H](CCCNC(=N)N)NC(=O)[C@H](C)NC(=O)[C@H](CC(C)C)NC(=O)[C@H](CO)NC(=O)[C@H](CCCNC(=N)N)NC(=O)[C@H](CCCCN)NC(=O)[C@H]([C@@H](C)O)NC3=O)NC2=O)cc1)C(=O)O [AQ1-EEEEEE-Glu^γ-C14-CH3]	0.38 nM	–	–
CC[C@H](C)[C@@H]1NC(=O)[C@H](C)NC(=O)[C@H]([C@@H](C)CC)NC(=O)[C@H](CCC(N)=O)NC(=O)[C@H](C)NC(=O)[C@H](CCCNC(=N)N)NC(=O)[C@H](C(C)C)NC(=O)[C@H](CC(C)C)NC(=O)[C@H](CCC(=O)O)NC(=O)[C@H](CCCNC(=N)N)NC(=O)CNC(=O)[C@@H](NC(=O)[C@H](CC(C)C)NC(=O)[C@H](CCCCN)NC(=O)[C@@H](NC(=O)[C@@H](NC(=O)[C@H](CCC(=O)O)NC(=O)[C@H](CCC(=O)O)NC(=O)[C@H](CCSC)NC(=O)[C@H](Cc2c[nH]c3ccccc23)NC(=O)[C@H](CO)NC(=O)[C@H](C)N)C(C)C)[C@@H](C)CC)CSSC[C@@H]2NC(=O)[C@@H](NC(=O)[C@H](CCCCN)NC(=O)[C@H](CC(N)=O)NC(=O)[C@H](C)NC(=O)[C@H](CC(C)C)NC(=O)[C@H](C)NC(=O)[C@H](CO)NC(=O)[C@H](Cc3ccc(O)cc3)NC(=O)[C@H](CC(C)C)NC(=O)[C@@H](N)Cc3ccc(C(C)=NOCCNC(=O)[C@H](CCCCN)NC(=O)[C@H](CO)NC(=O)CNC(=O)CNC(=O)[C@H](CO)NC(=O)CNC(=O)CNC(=O)CC[C@H](NC(=O)CCCCCCCCCCCCC(=O)O)C(=O)O)cc3)CSSC[C@H](NC(=O)CNC(=O)[C@H](C(C)C)NC(=O)[C@H](Cc3c[nH]cn3)NC2=O)C(=O)N[C@@H]([C@@H](C)O)C(=O)N[C@@H](CCCCN)C(=O)N[C@@H](CCCNC(=N)N)C(=O)N[C@@H](CO)C(=O)N[C@@H](CC(C)C)C(=O)N[C@@H](C)C(=O)N[C@@H](CCCNC(=N)N)C(=O)N[C@@H](Cc2ccccc2)C(=O)N[C@H](C(=O)O)CSSC[C@@H](C(=O)NCC(=O)N[C@@H](CCSC)C(=O)N[C@@H](CO)C(=O)N[C@H](C(=O)N[C@@H](Cc2c[nH]c3ccccc23)C(=O)N[C@@H](CO)C(=O)O)[C@@H](C)O)NC1=O [AQ1-KSGGSGG-Glu^γ-C13-COOH]	–	0.814 µM·h	0.73 nM
